Tests used:
[1] = tested on: Ts1Rhr B cells; test: Methylcellulose B cell colony forming / repassaging assay with drug; type: cell-based, mouse; conditions: 1 μM added at each passage
Protocol: Whole bone marrow was harvested from 6-8-week-old mice, and red blood cells were lysed. Cells were plated in B cell (Methocult M3630, Stem Cell Technologies) or myeloid (Methocult M3434) methylcelluose media in gridded 35 mm dishes. Myeloid colonies were plated at 2×10^4 cells/ml per passage. B cell colonies were plated at 2×10^5 cells/ml in passage 1, and at 5×10^4 cells/ml per subsequent passage. Colonies were counted at 7 days, and colonies were then pooled and replated in the same manner. GSK-J4 (KDM6A/UTX and KDM6B/JMJD3 inhibitor, catalog #M60063-2) (Kruidenier et al. (2012) Nature 488:404-408) and GSK-126 (EZH2 inhibitor, catalog #M60071-2) (McCabe et al. (2012) Nature 492:108-112) were purchased from Xcessbio. For methylcellulose experiments, at each passage DMSO, GSK-J4, or GSK-126 were added to cultures a final concentration of 1 μM. DS-ALLs (deidentified specimens obtained with informed consent under DFCI IRB protocol 05-001) were treated In vitro in quadruplicate with GSK-J4 at two-fold dilutions from 40 nM to 10 μM in RPMI with 20% calf serum supplemented with 10 ng/mL IL3, IL7, SCF, FLT3 ligand, and 50 μM beta-mercaptoethanol. After 3 days, viability was measured using CellTiter-Glo reagent and normalized to DMSO control (Promega).

[2] = tested on: H3K27me3; test: Western blotting of B cell colonies for H3K27me3; type: cell-based, mouse
Protocol: Western blotting was performed as described in Yoda et al. (2010) Proc. Natl. Acad. Sci. U.S.A. 107:252-257. Image J (available on the World Wide Web at imagej.nih.gov/ij) was used for quantitation of immunoblots, with band intensity normalized to total H3.
(§1) GSK-J4 (KDM6A/UTX and KDM6B/JMJD3 inhibitor, catalog #M60063-2) (Kruidenier et al. (2012) Nature 488:404-408) and GSK-126 (EZH2 inhibitor, catalog #M60071-2) (McCabe et al. (2012) Nature 492:108-112) were purchased from Xcessbio. For methylcellulose experiments, at each passage DMSO, GSK-J4, or GSK-126 were added to cultures a final concentration of 1 μM. DS-ALLs (deidentified specimens obtained with informed consent under DFCI IRB protocol 05-001) were treated In vitro in quadruplicate with GSK-J4 at two-fold dilutions from 40 nM to 10 μM in RPMI with 20% calf serum supplemented with 10 ng/mL IL3, IL7, SCF, FLT3 ligand, and 50 μM beta-mercaptoethanol. After 3 days, viability was measured using CellTiter-Glo reagent and normalized to DMSO control (Promega).

[3] = tested on: DS-ALLs; test: DS-ALLs treated in vitro with GSK-J4, viability by CellTiter-Glo; type: cell-based; conditions: Homo sapiens, 72 h; five DS-ALLs, 3 days, two-fold dilutions 40 nM to 10 μM, normalized to DMSO; read-out: IC50 values for GSK-J4 across a panel of DS-ALLs
Protocol: as §1

[4] = tested on: human primary macrophages; conditions: 10 μM; cited from earlier work
[5] = tested on: wild-type B cells; test: Methylcellulose B cell colony forming / repassaging assay with drug; type: cell-based, mouse
Protocol: Whole bone marrow was harvested from 6-8-week-old mice, and red blood cells were lysed. Cells were plated in B cell (Methocult M3630, Stem Cell Technologies) or myeloid (Methocult M3434) methylcelluose media in gridded 35 mm dishes. Myeloid colonies were plated at 2×10^4 cells/ml per passage. B cell colonies were plated at 2×10^5 cells/ml in passage 1, and at 5×10^4 cells/ml per subsequent passage. Colonies were counted at 7 days, and colonies were then pooled and replated in the same manner.
as §1

[6] = 1 μM, passage 2 colonies after 14 total days in culture

CCOC(=O)CCNc1cc(N2CCc3ccccc3CC2)nc(-c2ccccn2)n1 [GSK-J4, ethyl 3-((6-(4,5-dihydro-1H-benzo[d]azepin-3(2H)-yl)-2-(pyridin-2-yl)pyrimidin-4-yl)amino)propanoate]
indefinite repassaging [1]: blocked indefinite repassaging | colony-forming activity ([1]; vs DMSO): decreased colony-forming activity | H3K27me3 in Ts1Rhr B cells [2, 6]: increased H3K27me3 | IC50 [3]: 1400 to 2500 nM | lipopolysaccharide-induced proinflammatory cytokine production [4]: reduces

CC[C@H](C)n1cc(C)c2c(C(=O)NCc3c(C)cc(C)[nH]c3=O)cc(-c3ccc(N4CCNCC4)nc3)cc21 [GSK-126, (S)-1-(sec-butyl)-N-((4,6-dimethyl-2-oxo-1,2-dihydropyridin-3-yl)methyl)-3-methyl-6-(6-(piperazin-1-yl)pyridin-3-yl)-1H-indole-4-carboxamide]
indefinite repassaging in wild-type B cells ([5]; 1 μM added at each passage): sufficient to confer indefinite repassaging | indefinite repassaging after withdrawal of compound ([5]; wild-type cells, withdrawal at passage 5): reversible | H3K27me3 in wild-type B cells [2, 6]: decreased H3K27me3 | loss of H3K27me3 after withdrawal of compound ([2]; wild-type cells, one passage (7 days) after removal): reversible
